According to patent US20180201592A1, “2-AMINO-1,3,4-THIADIAZINE AND 2-AMINO-1,3,4-OXADIAZINE BASED ANTIFUNGAL AGENTS” (F2G Limited, priority 2015, published 2018):

Columns and labels:
Details in all cases: banded MIC grade
[1] = test system: Aspergillus terreus; experiment: Minimum inhibitory concentration, YAG medium; format: cell-based
How it was run: (§1)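 Growth inhibition was read as absorbance at 485 nm after spores of Aspergillus spp. were exposed for 24 hrs at 35° C to doubling dilutions of the compound. Dilutions were made in water starting from a 5 mg/mL DMSO stock, and MIC values were expressed in mg/L.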

[2] = test system: Aspergillus flavus; experiment: Minimum inhibitory concentration, YAG medium; format: cell-based
How it was run: as §1

[3] = test system: Aspergillus niger; experiment: Minimum inhibitory concentration, YAG medium; format: cell-based
How it was run: as §1

[4] = test system: Aspergillus fumigatus; experiment: Minimum inhibitory concentration, YAG medium; format: cell-based
How it was run: (§2)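 Broth microdilution in YAG medium; inoculum 1-2×10^4 cfu/mL; compound 50-0.05 mg/L in doubling steps, from DMSO stock. 24 h, 35° C. Read OD 485 nm; MIC = lowest conc. inhibiting growth >70% vs no-drug control, in mg/L.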

[5] = test system: A. fumigatus 210; experiment: Minimum inhibitory concentration, YAG medium; format: cell-based, Aspergillus fumigatus
How it was run: as §2

[6] = test system: C. tropicalis; experiment: Minimum inhibitory concentration, RPMI medium; format: cell-based
How it was run: (§3)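 Growth inhibition was judged from optical density at 485 nm per well after 24-48 hrs at 35° C. Test compound came from a 5 mg/mL DMSO stock, serially doubled in water before testing in RPMI 1640.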

[7] = test system: C. albicans; experiment: Minimum inhibitory concentration, RPMI medium; format: cell-based
How it was run: as §3

[8] = test system: C. parapsilosis; experiment: Minimum inhibitory concentration, RPMI medium; format: cell-based
How it was run: as §3

[9] = test system: A. terreus 49; experiment: Minimum inhibitory concentration, YAG medium; format: cell-based, Aspergillus terreus
How it was run: as §1

Row | SMILES | MIC grade, A. TERREUS, YAG media [1] | MIC grade, A. FLAVUS, YAG media [2] | MIC grade, A. NIGER, YAG media [3] | MIC grade, A. FUMIGATUS, YAG media [4] | MIC grade, A. FUMIGATUS 210, YAG media [5] | MIC grade, C. TROPICALIS, RPMI media [6] | MIC grade, C. ALBICANS, RPMI media [7] | MIC grade, C. PARAPSILOSIS, RPMI media [8] | MIC grade, A. TERREUS 49, YAG media [9]
1 | N#Cc1ccc(C2=NN=C(N)SC2)cc1 | 2 (2: 1-5 mg/L) | 2 (2: 1-5 mg/L) | 2 (2: 1-5 mg/L) | 1 (1: ≥5 mg/L) | 2 (2: 1-5 mg/L) | 1 (1: ≥20 mg/L) | 1 (1: ≥20 mg/L) | 1 (1: ≥20 mg/L) | 2 (2: 1-5 mg/L)
2 | NC1=NN=C(CCOC2CCCCC2)CS1 | 2 (2: 1-5 mg/L) | 2 (2: 1-5 mg/L) | 2 (2: 1-5 mg/L) | 2 (2: 1-5 mg/L) | 1 (1: ≥5 mg/L) | 1 (1: ≥20 mg/L) | 1 (1: ≥20 mg/L) | 2 (2: 5-20 mg/L) | 2 (2: 1-5 mg/L)
3 | NC1=NN=C(CCOCc2ccccc2)CS1 | 3 (3: 0.2-1 mg/L) | 3 (3: 0.2-1 mg/L) | 3 (3: 0.2-1 mg/L) | 3 (3: 0.2-1 mg/L) | 2 (2: 1-5 mg/L) | 1 (1: ≥20 mg/L) | 1 (1: ≥20 mg/L) | 3 (3: 1-5 mg/L) | 3 (3: 0.2-1 mg/L)
4 | CCCCOCCC1=NN=C(N)SC1 | 4 (4: <0.2 mg/L) | 3 (3: 0.2-1 mg/L) | 4 (4: <0.2 mg/L) | 4 (4: <0.2 mg/L) | 4 (4: <0.2 mg/L) | 2 (2: 5-20 mg/L) | 1 (1: ≥20 mg/L) | 4 (4: <1 mg/L) | 4 (4: <0.2 mg/L)
5 | CC(C)OCCC1=NN=C(N)SC1 | 2 (2: 1-5 mg/L) | 1 (1: ≥5 mg/L) | 1 (1: ≥5 mg/L) | 4 (4: <0.2 mg/L) | 1 (1: ≥5 mg/L) | 1 (1: ≥20 mg/L) | 1 (1: ≥20 mg/L) | 3 (3: 1-5 mg/L) | 2 (2: 1-5 mg/L)
6 | NC1=NN=C(c2ccccn2)CS1 | 1 (1: ≥5 mg/L) | 1 (1: ≥5 mg/L) | 2 (2: 1-5 mg/L) | 1 (1: ≥5 mg/L) | 1 (1: ≥5 mg/L) | 1 (1: ≥20 mg/L) | 1 (1: ≥20 mg/L) | 1 (1: ≥20 mg/L) | 1 (1: ≥5 mg/L)
7 | COc1cccc(C2=NN=C(N)SC2)c1 | 1 (1: ≥5 mg/L) | 1 (1: ≥5 mg/L) | 1 (1: ≥5 mg/L) | 1 (1: ≥5 mg/L) | 1 (1: ≥5 mg/L) | 1 (1: ≥20 mg/L) | 1 (1: ≥20 mg/L) | 1 (1: ≥20 mg/L) | 1 (1: ≥5 mg/L)
8 | NC1=NN=C(c2ccc(C3CCCCC3)cc2)CS1 | 1 (1: ≥5 mg/L) | 1 (1: ≥5 mg/L) | 1 (1: ≥5 mg/L) | 1 (1: ≥5 mg/L) | 1 (1: ≥5 mg/L) | 1 (1: ≥20 mg/L) | 1 (1: ≥20 mg/L) | 1 (1: ≥20 mg/L) | 1 (1: ≥5 mg/L)
9 | CC(C)c1ccc(C2=NN=C(N)SC2)cc1 | 2 (2: 1-5 mg/L) | 1 (1: ≥5 mg/L) | 1 (1: ≥5 mg/L) | 1 (1: ≥5 mg/L) | 1 (1: ≥5 mg/L) | 1 (1: ≥20 mg/L) | 1 (1: ≥20 mg/L) | 1 (1: ≥20 mg/L) | 2 (2: 1-5 mg/L)
10 | COc1ccc(C2=NN=C(N)SC2)cc1 | 3 (3: 0.2-1 mg/L) | 2 (2: 1-5 mg/L) | 2 (2: 1-5 mg/L) | 2 (2: 1-5 mg/L) | 2 (2: 1-5 mg/L) | 1 (1: ≥20 mg/L) | 1 (1: ≥20 mg/L) | 1 (1: ≥20 mg/L) | 3 (3: 0.2-1 mg/L)
11 | NC1=NN=C(CCCCc2ccccc2)CS1 | 4 (4: <0.2 mg/L) | 4 (4: <0.2 mg/L) | 4 (4: <0.2 mg/L) | 4 (4: <0.2 mg/L) | 4 (4: <0.2 mg/L) | 2 (2: 5-20 mg/L) | 2 (2: 5-20 mg/L) | 4 (4: <1 mg/L) | 4 (4: <0.2 mg/L)
12 | CCCc1ccc(C2=NN=C(N)SC2)cc1 | 3 (3: 0.2-1 mg/L) | 2 (2: 1-5 mg/L) | 2 (2: 1-5 mg/L) | 3 (3: 0.2-1 mg/L) | 3 (3: 0.2-1 mg/L) | 1 (1: ≥20 mg/L) | 1 (1: ≥20 mg/L) | 1 (1: ≥20 mg/L) | 3 (3: 0.2-1 mg/L)
13 | NC1=NN=C(CCCCCOc2ccccc2)CS1 | 4 (4: <0.2 mg/L) | 4 (4: <0.2 mg/L) | 4 (4: <0.2 mg/L) | 4 (4: <0.2 mg/L) | 4 (4: <0.2 mg/L) | 4 (4: <1 mg/L) | 4 (4: <1 mg/L) | 4 (4: <1 mg/L) | 4 (4: <0.2 mg/L)
14 | NC1=NNC2=C(CCCC2)S1 | 2 (2: 1-5 mg/L) | 1 (1: ≥5 mg/L) | 2 (2: 1-5 mg/L) | 2 (2: 1-5 mg/L) | 3 (3: 0.2-1 mg/L) | 1 (1: ≥20 mg/L) | 1 (1: ≥20 mg/L) | 1 (1: ≥20 mg/L) | 2 (2: 1-5 mg/L)
15 | CCCCOC1CCC2=NN=C(N)SC2C1 (stereo not drawn) | 2 (2: 1-5 mg/L) | 2 (2: 1-5 mg/L) | 2 (2: 1-5 mg/L) | 1 (1: ≥5 mg/L) | 3 (3: 0.2-1 mg/L) | 1 (1: ≥20 mg/L) | 1 (1: ≥20 mg/L) | 1 (1: ≥20 mg/L) | 2 (2: 1-5 mg/L)
16 | CCC(=O)OCC1=NN=C(N)SC1 | 3 (3: 0.2-1 mg/L) | 3 (3: 0.2-1 mg/L) | 3 (3: 0.2-1 mg/L) | 3 (3: 0.2-1 mg/L) | 3 (3: 0.2-1 mg/L) | 2 (2: 5-20 mg/L) | 1 (1: ≥20 mg/L) | 3 (3: 1-5 mg/L) | 3 (3: 0.2-1 mg/L)
17 | NC1=NN=C(CC(=O)OCc2ccccc2)CS1 | 2 (2: 1-5 mg/L) | 1 (1: ≥5 mg/L) | 2 (2: 1-5 mg/L) | 1 (1: ≥5 mg/L) | 1 (1: ≥5 mg/L) | 1 (1: ≥20 mg/L) | 1 (1: ≥20 mg/L) | 2 (2: 5-20 mg/L) | 2 (2: 1-5 mg/L)
18 | CCCCOC(=O)CC1=NN=C(N)SC1 | 2 (2: 1-5 mg/L) | 2 (2: 1-5 mg/L) | 3 (3: 0.2-1 mg/L) | 2 (2: 1-5 mg/L) | 3 (3: 0.2-1 mg/L) | 1 (1: ≥20 mg/L) | 1 (1: ≥20 mg/L) | 3 (3: 1-5 mg/L) | 3 (3: 0.2-1 mg/L)
19 | COC(=O)CC1=NN=C(N)SC1 | 2 (2: 1-5 mg/L) | 2 (2: 1-5 mg/L) | 2 (2: 1-5 mg/L) | 2 (2: 1-5 mg/L) | 2 (2: 1-5 mg/L) | 1 (1: ≥20 mg/L) | 1 (1: ≥20 mg/L) | 2 (2: 5-20 mg/L) | 2 (2: 1-5 mg/L)
